These compounds were tested against unphosphorylated-BTK kinase domain (UP-BTK), GST-tagged human BTK (389-659aa) (Homo sapiens (Human), UniProt Q06187) (assay: BTK Kinase Lanthascreen Binding Assay). Conditions: Lanthascreen binding, 60 minutes incubation; pIC50 = negative log of the IC50 in molar.
Sequence of unphosphorylated-BTK kinase domain (UP-BTK), GST-tagged human BTK (389-659aa) (Q06187 389-659): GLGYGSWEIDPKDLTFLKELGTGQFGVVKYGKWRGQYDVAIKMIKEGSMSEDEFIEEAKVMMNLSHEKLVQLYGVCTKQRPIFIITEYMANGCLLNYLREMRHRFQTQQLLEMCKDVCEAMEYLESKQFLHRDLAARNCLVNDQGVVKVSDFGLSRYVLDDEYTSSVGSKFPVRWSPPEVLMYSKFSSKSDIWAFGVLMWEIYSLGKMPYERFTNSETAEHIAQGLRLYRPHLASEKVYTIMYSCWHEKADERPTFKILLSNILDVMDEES
Description: BTK Kinase Lanthascreen Binding Assay:
A BTK kinase lanthascreen binding assay monitors compound binding to unphosphorylated-BTK kinase domain (UP-BTK), by competing with a fluorescent labeled tracer. […] Data were analyzed using Xlfit™ version 5.3 from ID Business Solutions (Guildford), Microsoft Excel add-in. pIC50 refers to the negative log of the IC50 in molar.
In the case of CCC(=O)N[C@H]1CC[C@@H](NC(=O)c2sc3nccc4c3c2NC(=O)N4c2cnc(Oc3ccccc3)cc2C)C1 (single isomer, unassigned) [Example 361, 5-(*S)-(4Methyl-6-phenoxypyridin-3-yl)-4-oxo-N-((1R,3S)-3-propionamidocyclopentyl)-4,5-dihydro-3H-1-thia-3,5,8-triazaacenaphthylene-2-carboxamide], the “BTK_I_binding pIC50” value is reported as 7.94.
In the case of C=CC(=O)N[C@H]1CCC[C@@H](NC(=O)c2sc3nccc4c3c2NC(=O)N4c2cnc(Oc3ccccc3)cc2C)C1 (single isomer, unassigned) [Example 363, N-((1R,3S)-3-Acrylamidocyclohexyl)-5-(*S)-(4-methyl-6-phenoxypyridin-3-yl)-4-oxo-4,5-dihydro-3H-1-thia-3,5,8-triazaacenaphthylene-2-carboxamide], the “BTK_I_binding pIC50” value is reported as 6.31.
C=CC(=O)N[C@H]1CC[C@@H](NC(=O)c2sc3nccc4c3c2NC(=O)N4c2cnc(OCC(C)C)cc2C)C1 (single isomer, unassigned) [Example 365] was tested, and the “BTK_I_binding pIC50” value was 7.93.
With C=CC(=O)N[C@H]1CC[C@@H](NC(=O)c2sc3nccc4c3c2NC(=O)N4c2cnc(OC3CCCC3)cc2C)C1 (single isomer, unassigned) [Example 366, N-((1R,3S)-3-Acrylamidocyclopentyl)-5-(*S)-(6-(cyclopentyloxy)-4-methylpyridin-3-yl)-4-oxo-4,5-dihydro-3H-1-thia-3,5,8-triazaacenaphthylene-2-carboxamide] the “BTK_I_binding pIC50” value was 8.07.
With C=CC(=O)N[C@H]1CCC[C@H]1NC(=O)c1sc2nccc3c2c1NC(=O)N3c1cnc(OC2CCCC2)cc1C (single isomer, unassigned) [Example 371, N-((1R,2S)-2-Acrylamidocyclopentyl)-5-(*S)-(6-(cyclopentyloxy)-4-methylpyridin-3-yl)-4-oxo-4,5-dihydro-3H-1-thia-3,5,8-triazaacenaphthylene-2-carboxamide] the “BTK_I_binding pIC50” value was 8.23.
In the case of C=CC(=O)N[C@H]1CCC[C@H]1NC(=O)c1sc2nccc3c2c1NC(=O)N3c1cnc(OCC(C)C)cc1C (single isomer, unassigned) [Example 373, N-((1R,2S)-2-Acrylamidocyclopentyl)-5-(*S)-(6-isobutoxy-4-methylpyridin-3-yl)-4-oxo-4,5-dihydro-3H-1-thia-3,5,8-triazaacenaphthylene-2-carboxamide], the “BTK_I_binding pIC50” value is reported as 8.25.
In the case of Cc1cc(OC2CCCC2)ncc1N1C(=O)Nc2c(C(=O)N[C@@H]3CCC[C@@H]3N)sc3nccc1c23 (single isomer, unassigned) [Example 374, N-((1R,2S)-2-Aminocyclopentyl)-5-(*S)-(6-(cyclopentyloxy)-4-methylpyridin-3-yl)-4-oxo-4,5-dihydro-3H-1-thia-3,5,8-triazaacenaphthylene-2-carboxamide], the “BTK_I_binding pIC50” value is reported as 6.82.
Cc1cc(Oc2ccccc2)ncc1N1C(=O)Nc2c(C(=O)N[C@@H]3CCCC[C@@H]3N)sc3nccc1c23 (single isomer, unassigned) [Example 375, N-((1R,2S)-2-Aminocyclohexyl)-5-(*S)-(4-methyl-6-phenoxypyridin-3-yl)-4-oxo-4,5-dihydro-3H-1-thia-3,5,8-triazaacenaphthylene-2-carboxamide] was tested, and the “BTK_I_binding pIC50” value was 6.92.
For CC(=O)N[C@H]1CCCC[C@H]1NC(=O)c1sc2nccc3c2c1NC(=O)N3c1cnc(Oc2ccccc2)cc1C (single isomer, unassigned) [Example 377, N-((1R,2S)-2-Acetamidocyclohexyl)-5-(*S)-(4-methyl-6-phenoxypyridin-3-yl)-4-oxo-4,5-dihydro-3H-1-thia-3,5,8-triazaacenaphthylene-2-carboxamide], the “BTK_I_binding pIC50” value was 6.83.
CC(=O)N[C@H]1CCC[C@H]1NC(=O)c1sc2nccc3c2c1NC(=O)N3c1cnc(Oc2ccccc2)cc1C (single isomer, unassigned) [Example 378, N-((1R,2S)-2-Acetamidocyclopentyl)-5-(*S)-(4-methyl-6-phenoxypyridin-3-yl)-4-oxo-4,5-dihydro-3H-1-thia-3,5,8-triazaacenaphthylene-2-carboxamide] was tested, and the “BTK_I_binding pIC50” value was 6.39.
In the case of CCC(=O)N[C@H]1CCCC[C@H]1NC(=O)c1sc2nccc3c2c1NC(=O)N3c1ccc(Oc2ccccc2)cc1C (single isomer, unassigned) [Example 380, 5-(*S)-(2-Methyl-4-phenoxyphenyl)-4-oxo-N-((1R,2S)-2-propionamidocyclohexyl)-4,5-dihydro-3H-1-thia-3,5,8-triazaacenaphthylene-2-carboxamide], the “BTK_I_binding pIC50” value is reported as 7.20.
For C=CC(=O)N[C@@H]1CCC[C@H]1NC(=O)c1sc2nccc3c2c1NC(=O)N3c1cnc(CC(C)C)cc1C (single isomer, unassigned) [Example 382, N-((1R,2R)-2-Acrylamidocyclopentyl)-5-(*S)-(6-isobutyl-4-methylpyridin-3-yl)-4-oxo-4,5-dihydro-3H-1-thia-3,5,8-triazaacenaphthylene-2-carboxamide], the “BTK_I_binding pIC50” value was 7.68.
CCC(=O)N[C@H]1CCC[C@@H](NC(=O)c2sc3nccc4c3c2NC(=O)N4c2cnc(Oc3ccccc3)cc2C)C1 (single isomer, unassigned) [Example 385, 5-(*S)-(4-Methyl-6-phenoxypyridin-3-yl)-4-oxo-N-((1R,3S)-3-propionamidocyclohexyl)-4,5-dihydro-3H-1-thia-3,5,8-triazaacenaphthylene-2-carboxamide] was tested, and the “BTK_I_binding pIC50” value was 7.98.
CCC(=O)N[C@@H]1CC[C@@H](NC(=O)c2sc3nccc4c3c2NC(=O)N4c2cnc(Oc3ccccc3)cc2C)C1 (single isomer, unassigned) [Example 388, 5-(*S)-(4-Methyl-6-phenoxypyridin-3-yl)-4-oxo-N-((1R,3R)-3-propionamidocyclopentyl)-4,5-dihydro-3H-1-thia-3,5,8-triazaacenaphthylene-2-carboxamide] was tested, and the “BTK_I_binding pIC50” value was 7.64.
CC(=O)N[C@H]1CC[C@@H](NC(=O)c2sc3nccc4c3c2NC(=O)N4c2cnc(Oc3ccccc3)cc2C)CC1 (single isomer, unassigned) [Example 389, N-((1S,4S)-4-Acetamidocyclohexyl)-5-(*S)-(4-methyl-6-phenoxypyridin-3-yl)-4-oxo-4,5-dihydro-3H-1-thia-3,5,8-triazaacenaphthylene-2-carboxamide] was tested, and the “BTK_I_binding pIC50” value was 7.30.
In the case of CCC(=O)N[C@@H]1CC[C@H](NC(=O)c2sc3nccc4c3c2NC(=O)N4c2cnc(Oc3ccccc3)cc2C)C1 (single isomer, unassigned) [Example 390, 5-(*S)-(4-Methyl-6-phenoxypyridin-3-yl)-4-oxo-N-((1S,3R)-3-propionamidocyclopentyl)-4,5-dihydro-3H-1-thia-3,5,8-triazaacenaphthylene-2-carboxamide], the “BTK_I_binding pIC50” value is reported as 8.04.

Same assay, conditions: read-out: BTK_I_binding pIC50 (converted)
Work on CC(=O)N[C@@H]1CCCC[C@H]1NC(=O)c1sc2nccc3c2c1NC(=O)N3c1ccc(Oc2ccccc2)nc1C (single isomer, unassigned) [Example 362, N-((1R,2R)-2-Acetamidocyclohexyl)-5-(*S)-(2-methyl-6-phenoxypyridin-3-yl)-4-oxo-4,5-dihydro-3H-1-thia-3,5,8-triazaacenaphthylene-2-carboxamide] yielded an IC50 greater than 1000 nM.
CCC(=O)N[C@H]1CCCC[C@H]1NC(=O)c1sc2nccc3c2c1NC(=O)N3c1ccc(Oc2ccccc2)nc1C (single isomer, unassigned) [Example 364, 5-(*S)-(2-Methyl-6-phenoxypyridin-3-yl)-4-oxo-N-((1R,2R)-2-propionamidocyclohexyl)-4,5-dihydro-3H-1-thia-3,5,8-triazaacenaphthylene-2-carboxamide] showed an IC50 greater than 1000 nM.

Source: patent US10934310B2, “Inhibitors of Bruton's tyrosine kinase and method of their use” (JANSSEN PHARMACEUTICA NV, priority 2015, dated 2021)
